From US4785090A, “Cephalosporin derivatives” (Meiji Seika Kaisha, Ltd., priority 1984, dated 1988)
Counter-ions that a name gives are not always drawn. Like-named read-outs stand apart in the source and are kept apart here.

How the values were obtained:
Eshcerichia coli GN 206 = assay: Minimum Growth Inhibitory Concentration (MIC), Escherichia coli GN 206; format: cell-based
Excerpt: (§1) Minimum Growth Inhibitory Concentration (MIC) mcg/ml
4. Eshcerichia coli GN 206

Proteus vulgaris GN 76 = assay: Minimum Growth Inhibitory Concentration (MIC), Proteus vulgaris GN 76; format: cell-based
Excerpt: as §1
10. Proteus vulgaris GN 76
as §1
8. Proteus vulgaris GN 76

[1] = tested on: Staphylococcus aureus 209PJC1; assay: Minimum Growth Inhibitory Concentration (MIC), Staphylococcus aureus 209PJC1; format: cell-based
Excerpt: as §1
1. Staphylococcus aureus 209PJC1
as §1
2. Staphylococcus aureus 209 PJC1

[2] = tested on: Escherichia coli NIHJ JC2; assay: Minimum Growth Inhibitory Concentration (MIC), Escherichia coli NIHJ JC2; format: cell-based
Excerpt: as §1
3. Escherichia coli NIHJ JC2

[3] = Serum concentration in mice after subcutaneous administration; format: in vivo; conditions: mouse, sc, subcutaneous 25 mg/kg
Method: The experiment was conducted by using 3 mice (average body weight 20 g) in each group, subcutaneously administering 25 mg/kg of the sample, taking blood samples at predetermined intervals, separating the serum and measuring the sample concentration by an antibacterial activity test using Escherichia coli as a testing bactera.

Proteus mirabilis GN 79 = assay: Minimum Growth Inhibitory Concentration (MIC), Proteus mirabilis GN 79; format: cell-based
Excerpt: as §1
6. Proteus mirabilis GN 79

[4] = tested on: Staphylococcus aureus Smith; assay: Minimum Growth Inhibitory Concentration (MIC), Staphylococcus aureus Smith; format: cell-based; conditions: read-out: Minimum Growth Inhibitory Concentration (MIC)
Excerpt: as §1
1. Staphylococcus aureus Smith

[5] = tested on: Salmonella typhimurium LT2; assay: Minimum Growth Inhibitory Concentration (MIC), Salmonella typhimurium LT2; format: cell-based; conditions: Salmonella enterica, read-out: Minimum Growth Inhibitory Concentration (MIC)
Excerpt: as §1
7. Salmonella typhimurium LT2

Proteus rettgeri GN624 = assay: Minimum Growth Inhibitory Concentration (MIC), Proteus rettgeri GN624; format: cell-based; conditions: Providencia rettgeri
Excerpt: as §1
9. Proteus rettgeri GN624

[6] = tested on: Serratia marcescens No. 2; assay: Minimum Growth Inhibitory Concentration (MIC), Serratia marcescens No. 2; format: cell-based
Excerpt: as §1
10. Serratia marcescens No. 2

[7] = tested on: Klebsiella pneumoniae PCI 602; assay: Minimum Growth Inhibitory Concentration (MIC), Klebsiella pneumoniae PCI 602; format: cell-based
Excerpt: as §1
5. Klebsiella pneumoniae PCI 602

[8] = GN206, read-out: Minimum Growth Inhibitory Concentration (MIC)
[9] = Proteus vulgaris, GN76, read-out: Minimum Growth Inhibitory Concentration (MIC)
[10] = Staphylococcus aureus, 209PJC1, read-out: Minimum Growth Inhibitory Concentration (MIC)
[11] = Escherichia coli, NIHJJC2, read-out: Minimum Growth Inhibitory Concentration (MIC)
[12] = Proteus mirabilis, GN79, read-out: Minimum Growth Inhibitory Concentration (MIC)
[13] = GN624, read-out: Minimum Growth Inhibitory Concentration (MIC)
[14] = Serratia marcescens, NO.2, read-out: Minimum Growth Inhibitory Concentration (MIC)
[15] = Klebsiella pneumoniae, PCI602, read-out: Minimum Growth Inhibitory Concentration (MIC)
[16] = Table 2, bacterium 7: Salmonella typhimurium LT2
[17] = GN206, Table 2, bacterium 4: Eshcerichia coli GN 206, read-out: Minimum Growth Inhibitory Concentration (MIC)
[18] = GN76, Table 2, bacterium 8: Proteus vulgaris GN 76, read-out: Minimum Growth Inhibitory Concentration (MIC)
[19] = Table 2, bacterium 2: Staphylococcus aureus 209 PJC1, read-out: Minimum Growth Inhibitory Concentration (MIC)
[20] = NIHJJC2, Table 2, bacterium 3: Escherichia coli NIHJ JC2, read-out: Minimum Growth Inhibitory Concentration (MIC)
[21] = GN79, Table 2, bacterium 6: Proteus mirabilis GN 79, read-out: Minimum Growth Inhibitory Concentration (MIC)
[22] = Table 2, bacterium 1: Staphylococcus aureus Smith
[23] = Table 2, bacterium 9: Proteus rettgeri GN624, read-out: Minimum Growth Inhibitory Concentration (MIC)
[24] = Table 2, bacterium 10: Serratia marcescens No. 2, read-out: Minimum Growth Inhibitory Concentration (MIC)
[25] = PCI602, Table 2, bacterium 5: Klebsiella pneumoniae PCI 602, read-out: Minimum Growth Inhibitory Concentration (MIC)

Compound: CO/N=C(\C(=O)N[C@@H]1C(=O)N2C(C(=O)O)=C(CSc3cc[n+](CC(=O)O)cc3)CS[C@H]12)c1csc(N)n1.[Na+]
- MIC (Eshcerichia coli GN 206; [8]): 0.2 µg/mL
- MIC (Proteus vulgaris GN 76; [9]): 0.05 µg/mL
- MIC [1, 10]: 0.78 µg/mL
- MIC [2, 11]: 1.56 µg/mL
- concentration at 0.5 h ([3]; 1/2 hr): 12500 ng/mL
- concentration at 0.25 h ([3]; 1/4 hr): 28000 ng/mL
- concentration at 5 min ([3]; 1/12 hr): 20000 ng/mL
- concentration at 1 h ([3]; 1 hr): 2200 ng/mL
- MIC (Proteus mirabilis GN 79; [12]): 0.2 µg/mL
- MIC ([4]; Staphylococcus aureus): 1.56 µg/mL
- MIC ([5]; TYPHIMURIUM): 0.025 µg/mL
- MIC (Proteus rettgeri GN624; [13]): 0.39 µg/mL
- MIC [6, 14]: 0.05 µg/mL
- MIC [7, 15]: 0.025 µg/mL

Compound: Nc1nc(/C(=N/OCC(=O)O)C(=O)N[C@@H]2C(=O)N3C(C(=O)O)=C(CSc4cc[n+](CC(=O)O)cc4)CS[C@H]23)cs1.[Na+] [Example 29, (6R,7R)-7-[(Z)-2-(2-Aminothiazol-4-yl)-2-(carboxymethoxyimino)acetamido]-3-[(1-carboxymethylpyridinium-4-yl)thiomethyl]-ceph-3-em-4-carboxylic acid sodium salt]
- MIC (Eshcerichia coli GN 206; [8]): 0.39 µg/mL
- MIC (Proteus vulgaris GN 76; [9]): 0.2 µg/mL
- MIC [1, 10]: 0.39 µg/mL
- MIC [2, 11]: 0.39 µg/mL
- MIC (Proteus mirabilis GN 79; [12]): 0.79 µg/mL
- MIC ([4]; Staphylococcus aureus): 0.78 µg/mL
- MIC [5, 16]: 0.2 µg/mL
- MIC (Proteus rettgeri GN624; [13]): 3.13 µg/mL
- MIC [6, 14]: 0.39 µg/mL
- MIC [7, 15]: 0.1 µg/mL

Compound: C=CCO/N=C(\C(=O)N[C@@H]1C(=O)N2C(C(=O)O)=C(CSc3cc[n+](CC(=O)O)cc3)CS[C@H]12)c1csc(N)n1.[Na+] [Example 30, (6R,7R)-7-[(Z)-2-(2-Aminothiazol-4-yl)-2-(allyloxyimino)acetamido]-3-[(1-carboxymethylpyridinium-4-yl)thiomethyl]-ceph-3-em-4-carboxylic acid sodium salt]
- MIC (Eshcerichia coli GN 206; [8]): 1.56 µg/mL
- MIC (Proteus vulgaris GN 76; [9]): 0.05 µg/mL
- MIC [1, 10]: 12.5 µg/mL
- MIC [2, 11]: 25 µg/mL
- MIC (Proteus mirabilis GN 79; [12]): 0.05 µg/mL
- MIC ([4]; Staphylococcus aureus): 25 µg/mL
- MIC [5, 16]: 0.1 µg/mL
- MIC (Proteus rettgeri GN624; [13]): 0.2 µg/mL
- MIC [6, 14]: 0.1 µg/mL
- MIC [7, 15]: 0.1 µg/mL

Compound: CCO/N=C(\C(=O)N[C@@H]1C(=O)N2C(C(=O)[O-])=C(CSc3cc[n+](C(C)C(=O)O)cc3)CS[C@H]12)c1csc(N)n1 (stereo partly drawn) [Example 31, (6R,7R)-7-[(Z)-2-(2-Aminothiazol-4-yl)-2-ethoxyiminoacetamido]-3-[1-(1-carboxy-1-ethylpyridinium-4-yl)thiomethyl]-ceph-3-em-4-carboxylic acid sodium salt]
- MIC (Eshcerichia coli GN 206; [17]): 0.39 µg/mL
- MIC (Proteus vulgaris GN 76; [18]): 1.56 µg/mL
- MIC [1, 19]: 3.13 µg/mL
- MIC [2, 20]: 6.25 µg/mL
- MIC (Proteus mirabilis GN 79; [21]): 0.78 µg/mL
- MIC [4, 22]: 3.13 µg/mL
- MIC [5, 16]: 0.2 µg/mL
- MIC (Proteus rettgeri GN624; [23]): 0.78 µg/mL
- MIC [6, 24]: 0.39 µg/mL
- MIC [7, 25]: 0.2 µg/mL

Compound: CCO/N=C(\C(=O)N[C@@H]1C(=O)N2C(C(=O)[O-])=C(CSc3cc[n+](C(C(=O)O)c4ccccc4)cc3)CS[C@H]12)c1csc(N)n1 (stereo partly drawn) [Example 32, (6R,7R)-7-[(Z)-2-(2-Aminothiazol-4-yl)-2-ethoxyiminoacetamido]-3-[(1-carboxybenzylpyridinium-4-yl)thiomethyl]-ceph-3-em-4-carboxylic acid sodium salt]
- MIC (Eshcerichia coli GN 206; [17]): 0.78 µg/mL
- MIC (Proteus vulgaris GN 76; [18]): 0.78 µg/mL
- MIC [1, 19]: 1.56 µg/mL
- MIC [2, 20]: 0.39 µg/mL
- MIC (Proteus mirabilis GN 79; [21]): 3.13 µg/mL
- MIC [4, 22]: 1.56 µg/mL
- MIC [5, 16]: 0.39 µg/mL
- MIC (Proteus rettgeri GN624; [23]): 0.39 µg/mL
- MIC [6, 24]: 0.78 µg/mL
- MIC [7, 25]: 0.2 µg/mL
